Measured values taken from PubChem BioAssay AID256 (DTP/NCI, 2004).
Inconclusive results and toxic doses are left out. How the source made its calls: active means survival T/C of 150% or more; inactive means T/C below 125% in these data.

Tested on: CD2F1 mice, L1210 leukemia ip, survival T/C
Experiment: NCI In Vivo Anticancer Drug Screen. Data for tumor model L1210 Leukemia (intraperitoneal) in CD2F1 (CDF1) mice
Details: higher = longer survival
Outline: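 Tumor-bearing mice (transplanted tumor) were split into treated and vehicle control groups, and the measured endpoint of each treated group was divided by that of its vehicle controls.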

[1] = endpoint: mean survival time, dose: 100.0 mg/kg/injection, schedule: Q01DX009 (ip), vehicle: saline with Tween-80
[2] = endpoint: mean survival time, dose: 200.0 mg/kg/injection, schedule: Q01DX009 (ip), vehicle: saline with Tween-80
[3] = endpoint: mean survival time, dose: 400.0 mg/kg/injection, schedule: Q01DX009 (ip), vehicle: saline with Tween-80
[4] = endpoint: mean survival time, dose: 100.0 mg/kg/injection, schedule: Q01DX001 (ip), vehicle: saline
[5] = endpoint: mean survival time, dose: 200.0 mg/kg/injection, schedule: Q01DX001 (ip), vehicle: saline
[6] = endpoint: mean survival time, dose: 100.0 mg/kg/injection, schedule: Q04DX003 (ip), vehicle: saline with Tween-80
[7] = endpoint: mean survival time, dose: 200.0 mg/kg/injection, schedule: Q04DX003 (ip), vehicle: saline with Tween-80
[8] = endpoint: mean survival time, dose: 400.0 mg/kg/injection, schedule: Q04DX003 (ip), vehicle: saline with Tween-80
[9] = endpoint: mean survival time, dose: 12.5 mg/kg/injection, schedule: Q01DX009 (ip), vehicle: saline with Tween-80
[10] = endpoint: mean survival time, dose: 5.0 mg/kg/injection, schedule: Q04DX003 (ip), vehicle: saline

Measured: T/C

C=CCNC(=S)NCC
inactive: [1] 98 % of control | endpoint: mean survival time, dose: 100.0 mg/kg/injection, schedule: Q04DX003 (ip), vehicle: saline sonified 101 % of control | [2] 101 % of control | endpoint: mean survival time, dose: 200.0 mg/kg/injection, schedule: Q04DX003 (ip), vehicle: saline sonified 97 % of control | [3] 102 % of control | endpoint: mean survival time, dose: 400.0 mg/kg/injection, schedule: Q04DX003 (ip), vehicle: saline sonified 101 % of control

CCOC(=O)C(C(=O)OCC)[N+](=O)[O-]
inactive: endpoint: mean survival time, dose: 50.0 mg/kg/injection, schedule: Q04DX003 (ip), vehicle: saline 102 % of control | [4] 97 % of control | endpoint: mean survival time, dose: 100.0 mg/kg/injection, schedule: Q04DX003 (ip), vehicle: saline 100 % of control | [5] 95 % of control | endpoint: mean survival time, dose: 200.0 mg/kg/injection, schedule: Q04DX003 (ip), vehicle: saline 105 % of control

c1cc2nc(c1)CSCCCCCCCCSC2
inactive: [1] 88 % of control | [2] 91 % of control | [3] 95 % of control

CC(c1ccccc1)n1cncc1C(=O)O (stereo not given)
inactive: endpoint: mean survival time, dose: 100.0 mg/kg/injection, schedule: Q01DX001 (ip), vehicle: saline with Tween-80 106 % of control | endpoint: mean survival time, dose: 200.0 mg/kg/injection, schedule: Q01DX001 (ip), vehicle: saline with Tween-80 97 % of control | endpoint: mean survival time, dose: 400.0 mg/kg/injection, schedule: Q01DX001 (ip), vehicle: saline with Tween-80 95 % of control

[O-][n+]1c(Cl)nc(Cl)c(Cl)c1C(Cl)(Cl)Cl
inactive: endpoint: mean survival time, dose: 12.5 mg/kg/injection, schedule: Q04DX003 (ip), vehicle: other 111 % of control | endpoint: mean survival time, dose: 25.0 mg/kg/injection, schedule: Q04DX003 (ip), vehicle: other 103 % of control

Cc1oc(N)c(C#N)c1C
inactive: [1] 101 % of control | [6] 102 % of control | [2] 104 % of control | [7] 96 % of control | [3] 106 % of control | [8] 102 % of control

CCOC1NC(=O)Oc2ccccc21 (stereo not given)
inactive: endpoint: median survival time, dose: 50.0 mg/kg/injection, schedule: Q01DX005 (ip), vehicle: Klucel (hydroxypropylcellulose) (HPC) 100 % of control | endpoint: median survival time, dose: 100.0 mg/kg/injection, schedule: Q01DX005 (ip), vehicle: Klucel (hydroxypropylcellulose) (HPC) 95 % of control | endpoint: median survival time, dose: 200.0 mg/kg/injection, schedule: Q01DX005 (ip), vehicle: Klucel (hydroxypropylcellulose) (HPC) 108 % of control

Nc1ccc(C(=O)O)cc1S(=O)(=O)O
inactive: endpoint: mean survival time, dose: 25.0 mg/kg/injection, schedule: Q01DX001 (ip), vehicle: Klucel (hydroxypropylcellulose) (HPC) 96 % of control | endpoint: mean survival time, dose: 50.0 mg/kg/injection, schedule: Q01DX001 (ip), vehicle: Klucel (hydroxypropylcellulose) (HPC) 100 % of control | endpoint: mean survival time, dose: 100.0 mg/kg/injection, schedule: Q01DX001 (ip), vehicle: Klucel (hydroxypropylcellulose) (HPC) 107 % of control

Cc1cc(C)c(F)[c]([Hg][Br])c1N
inactive: endpoint: mean survival time, dose: 3.13 mg/kg/injection, schedule: Q01DX009 (ip), vehicle: Klucel (hydroxypropylcellulose) (HPC) 102 % of control | endpoint: mean survival time, dose: 6.25 mg/kg/injection, schedule: Q01DX009 (ip), vehicle: Klucel (hydroxypropylcellulose) (HPC) 113 % of control | endpoint: mean survival time, dose: 12.5 mg/kg/injection, schedule: Q01DX009 (ip), vehicle: Klucel (hydroxypropylcellulose) (HPC) 105 % of control

ClC1CCC[N-]C1.ClC1CCC[N-]C1.[Cl][Pt+2]([Cl])([Cl])[Cl] (stereo not given)
inactive: endpoint: mean survival time, dose: 0.78 mg/kg/injection, schedule: Q01DX009 (ip), vehicle: saline with Tween-80 102 % of control | endpoint: mean survival time, dose: 1.56 mg/kg/injection, schedule: Q01DX009 (ip), vehicle: saline with Tween-80 109 % of control | endpoint: mean survival time, dose: 3.13 mg/kg/injection, schedule: Q01DX009 (ip), vehicle: saline with Tween-80 105 % of control | endpoint: mean survival time, dose: 6.25 mg/kg/injection, schedule: Q01DX009 (ip), vehicle: saline with Tween-80 112 % of control | [9] 104 % of control

COc1ccc(C(C)C(C)=O)cc1 (stereo not given)
inactive: [9] 91 % of control | endpoint: mean survival time, dose: 25.0 mg/kg/injection, schedule: Q01DX009 (ip), vehicle: saline with Tween-80 91 % of control | endpoint: mean survival time, dose: 50.0 mg/kg/injection, schedule: Q01DX009 (ip), vehicle: saline with Tween-80 95 % of control

Nc1ccc(CSc2ccccc2)cc1F
inactive: [6] 93 % of control | [7] 92 % of control | [8] 108 % of control

O/N=C/c1ccc(O)cc1O
inactive: [4] 100 % of control | [5] 102 % of control

N#CC(O)Cc1ccccc1 (stereo not given)
inactive: [10] 98 % of control | endpoint: mean survival time, dose: 10.0 mg/kg/injection, schedule: Q04DX003 (ip), vehicle: saline 98 % of control

NC(=S)N/N=C/c1ccc(OC(F)(F)F)cn1
inactive: endpoint: mean survival time, dose: 1.56 mg/kg/injection, schedule: Q01DX009 (ip), vehicle: other 104 % of control | endpoint: mean survival time, dose: 3.13 mg/kg/injection, schedule: Q01DX009 (ip), vehicle: other 100 % of control | endpoint: mean survival time, dose: 6.25 mg/kg/injection, schedule: Q01DX009 (ip), vehicle: other 108 % of control | endpoint: mean survival time, dose: 12.5 mg/kg/injection, schedule: Q01DX009 (ip), vehicle: other 118 % of control | endpoint: mean survival time, dose: 25.0 mg/kg/injection, schedule: Q04DX002 (ip), vehicle: other 89 % of control | endpoint: mean survival time, dose: 50.0 mg/kg/injection, schedule: Q04DX002 (ip), vehicle: other 104 % of control | endpoint: mean survival time, dose: 100.0 mg/kg/injection, schedule: Q04DX002 (ip), vehicle: other 115 % of control

CCOC12CC3C4=CCOC5CC(=O)N6c7ccccc7C1(CCN2C4)C6C53 (stereo not given)
inactive: endpoint: mean survival time, dose: 5.0 mg/kg/injection, schedule: Q01DX001 (ip), vehicle: saline 98 % of control | endpoint: mean survival time, dose: 10.0 mg/kg/injection, schedule: Q01DX001 (ip), vehicle: saline 101 % of control | endpoint: mean survival time, dose: 20.0 mg/kg/injection, schedule: Q01DX001 (ip), vehicle: saline 95 % of control | endpoint: mean survival time, dose: 40.0 mg/kg/injection, schedule: Q01DX001 (ip), vehicle: saline 97 % of control

O=C(CCl)N1c2ccccc2Sc2ccccc21
inactive: endpoint: mean survival time, dose: 25.0 mg/kg/injection, schedule: Q01DX009 (ip), vehicle: water 93 % of control | endpoint: mean survival time, dose: 50.0 mg/kg/injection, schedule: Q01DX009 (ip), vehicle: water 91 % of control | endpoint: mean survival time, dose: 100.0 mg/kg/injection, schedule: Q01DX009 (ip), vehicle: water 95 % of control | endpoint: mean survival time, dose: 200.0 mg/kg/injection, schedule: Q01DX009 (ip), vehicle: water 95 % of control

[Cu+2].[NH-]C1(C(=O)O)CCCC1.[NH-]C1(C(=O)O)CCCC1
inactive: endpoint: mean survival time, dose: 2.5 mg/kg/injection, schedule: Q01DX009 (ip), vehicle: saline with Tween-80 89 % of control | endpoint: mean survival time, dose: 5.0 mg/kg/injection, schedule: Q01DX009 (ip), vehicle: saline with Tween-80 100 % of control | [10] 91 % of control | endpoint: mean survival time, dose: 10.0 mg/kg/injection, schedule: Q01DX009 (ip), vehicle: saline with Tween-80 94 % of control

CC(=O)C1CCC2C3CCC4=CC(=O)CC4(C)C3CCC12C (stereo not given)
inactive: [6] 113 % of control | [7] 124 % of control
